Measured values: patent US6548486B1, “Fatty acid esters of nucleoside analogs” (Norsk Hydro a.s., priority 1991, dated 2003)

How the values were obtained:
[1] = system: HSV 2 strain relatively resistent to ACV; test: Plaque method with a HSV 2 strain relatively resistent to ACV; type: cell-based; settings: 0.9 μmol/l versus 2.2 μmol/l, FIG. 1B
Experimental: A virus preparation of HSV 2 (3rd passage of a clinical isolate) is diluted to 3×10^3 pfu/well, and thereafter inocculated on cells and incubated for 1 hour in a tissue culture of vero cells. At that time the virus is incorporated into the cells.
These cells are then cultivated for 24 hours with an anti-viral agent. Thereafter they are placed under freezing conditions, which lead to the disruption of the cells and free virus appear under the melting process. Dilutions of either 1/100 or 1/10000 are prepared and added to fresh tissue cultures. Incubation for 1 hour leads to incorporation of virus in the cells. Carboxymethylcellulose (CMC) is added in order to prohibit the migration of virus between the cells through the medium. Spread of virus by cell contact is still effective in causing the formation of plaques.
One plaque will represent one infectious virus. Thus the counting of plaques gives a precise quantitation of the number of infectious virus.
In a test done with a HSV 2 strain relatively resistent to ACV, the test compounds, ACV, ACV-oleate and ACV-elaidate, were added at 0.9 μmol/l or 2.2 μmol/l.

[2] = system: HSV 2 (3rd passage of a clinical isolate); test: Plaque method: tissue culture of HSV 2 in vero cells; type: cell-based; settings: Ara T esters at 3.9 μmol/l, FIG. 2
[3] = system: Herpes virus 2; test: In vivo reduced mortality, Herpes Simplex Virus 2 infected mice; design: species or system female NMRI mice
From the text: The in vivo experiments were done using 3-4 weeks old female NMRI mice. This strain of mice is sensitive to the human herpes virus, up to an age of about 6 weeks, where after they become relatively resistant. Mice below this critical age were used, having a weight of 13-17 grams.
Herpes virus 2 which were third passage isolates were inocculated on the left ear lobe by a standarized procedure. […] Thus HSV 2 is especially suitable as a system for evaluation of the therapeutic efficiency by counting the number of cases of encephalitis.
The animals received approximately 12 mg/kg body weight/day through the drinking water. The compounds were added to the drinking water formulated as micelles with deoxycholate.
Both the control group and the groups receiving the test compounds included 10 animals in each group. The test compounds were ACV-elaidate and ACV in comparison with the control. Treatment was started on day 3 from inocculation. At that time the infection is well established in the central nerve system.

Row | Structure (SMILES) | inhibitory effect at increasing concentration [1] | inhibition [2] [%] | survival rate ([3]; approximately 12 mg/kg body weight/day through the drinking water, treatment started day 3 from inocculation, FIG. 3) [%] | signs of encephalitis ([3]; surviving animals after 21 days)
1 | Nc1nc2c(ncn2COCCO)c(=O)[nH]1 [ACV, 9-(2-Hydroxyethoxymethyl)-Guanine, reference compound] | remains at the same level | – | – | –
2 | CCCCCCCC/C=C\CCCCCCCC(=O)OCCOCn1cnc2c(=O)[nH]c(N)nc21 [ACV-oleate, 9-(2′-(cis-9′-Octadecenoylcxy)ethoxymethyl)-Guanine] | strongly enhanced at the higher concentration | – | – | –
3 | CCCCCCCC/C=C\CCCCCCCC(=O)OC[C@H]1O[C@@H](n2cc(C)c(=O)[nH]c2=O)[C@@H](O)[C@@H]1O (relative stereo) [Ara T oleate, 5′-O-(cis-9″-Octadecenoyl)-1-β-D-Arabinofuranosyl-Thymine] | – | 100 | – | –
4 | CCCCCCCC/C=C/CCCCCCCC(=O)OCCOCn1cnc2c(=O)[nH]c(N)nc21 [ACV-elaidate, 9-(2′-(trans-9″-Octadecenoyloxy)ethoxymethyl)-Guanine] | strongly enhanced at the higher concentration | – | 40 | no signs of encephalitis
